Here are results for three molecules from paper PMC10708030, “Cytotoxic Natural Products Isolated from Cryptogramma crispa (L.) R. Br” (Molecules, 2023).

In series [1] the test system is acute myeloid leukaemia cell line MOLM13. Put plainly: Cytotoxicity, WST-1 metabolic activity, MOLM13 cells. Type of series: cell-based. The following applies: Homo sapiens, MOLM-13; 72 h incubation, metabolic activity (WST-1), 3 independent experiments. Here is the method: (§1) Stock solutions were prepared by dissolving pure compounds to a final concentration of 20 mM in DMSO. The normal rat kidney epithelial cells (NRK, ATCC no.: CRL-6509) and rat cardiomyoblasts (H9c2, ATCC no.: CRL-1446) were cultured in DMEM medium supplemented with 10% foetal bovine serum (FBS, Invitrogen, Carlsbad, CA, USA). When the cells reached 80% confluence, they were detached in a mild trypsin treatment (0.33 mg/mL trypsin for 5 min at 37 °C), centrifuged (160× g, 4 min), and reseeded in fresh medium to 25% confluence.
The AML cell line MOLM13 (DSMZ no.: ACC554 [24]) was cultured in RPMI-1640 medium enriched with 10% FBS 8mM L-glutamine (Sigma Life Science, London, UK). […]
(§2) […] The plates were further incubated for two hours before the signal was recorded at 450 nm with a reference at 620 nm. […]
(§3) After the recording of WST-1, the cells were then fixed with 2% buffered formaldehyde (pH 7.4) with 0.01 mg/mL of the DNA-specific fluorescent dye, Hoechst 33342. The presence of dead (apoptotic or necrotic) cells was verified via differential interference contrast and fluorescence microscopy as previously described by Oftedal et al. and Myhren et al..
(§4) EC50 values were determined using four-parameter regression analysis described by Viktorsson et al. using SigmaPlot v14 software (Systat Software Inc., San Jose, CA, USA).
In general terms: Tetrazolium dyes change colour on reduction, which living cells bring about.

In series [2] the test system is rat cardiomyoblasts (H9c2). Put plainly: Cytotoxicity, WST-1 metabolic activity, H9c2 cells. Type of series: cell-based. Conditions: 72 h incubation, metabolic activity (WST-1), three experiments. Here is the method: as §1
(§5) All media were supplemented with 1 IU/mL penicillin and 1 mg/mL streptomycin (both from Cambrex, Liège, Belgium) and incubated in a humidified atmosphere (37 °C, 5% CO2). […]
as §2, §3, §4

In series [3] the test system is normal rat kidney epithelial cells (NRK). Description: Cytotoxicity, WST-1 metabolic activity, NRK cells. Type of series: cell-based. The following applies: Epithelial cell, 72 h incubation, metabolic activity (WST-1), three experiments. The method, then: as §1, §5, §2, §3, §4
Series [4] has as its system myeloid leukaemia HL 60 cells. Conditions: cited from earlier work.
For series [5] the following is noted: cited from earlier work.

Turning to `Cc1cc2c(c(C)c1CCOC1OC(CO)C(O)C(O)C1O)C(=O)C(C)(C)C2OC(=O)CC(=O)O` [Compound 14, 3(R)-O-malonyl pteroside D], the EC50 was 197.88 ± 0.18 µM in series [1], > 200 µM in series [2] and > 200 µM in series [3].

As for `CC1=C2C(=CC(C)(C)[C@@H]2O)C(=O)[C@](C)(O)C12CC2` [illudin M], the “cytotoxic effects against HL 60 cells” value in series [4] is 6 to 100 nM. The antibacterial activity result in series [5] was “significant antibacterial activity”.

As to `CC1=C2C(=C[C@@](C)(CO)[C@@H]2O)C(=O)[C@](C)(O)C12CC2` [illudin S], the antibacterial activity entry in series [5] is “significant antibacterial activity”.

By EC50 is commonly meant the concentration giving half of the maximal effect.
